From patent US4461761A, “Oligomers of compounds of the muramyl-peptide type and medicaments containing them” (priority 1978, dated 1984)

Assays:
[1] = system: bovine serum albumin (BSA); assay: Adjuvant character in the aqueous phase (anti-BSA antibody titer, passive hemagglutination); type: in vivo, Swiss mice; settings: 100 μg adjuvant s.c. with 0.5 mg BSA in isotonic saline; booster day 30; six days after booster; maximum serum dilution agglutinating
Protocol: Groups of 8 Swiss mice aged two months received, by sub-cutaneous injection (SC), 0.5 mg of antigen constituted by bovine serum albumin (BSA) with 0.1 mg or without the tested substance in an isotonic saline solution. This high dose of antigen, because it is situated at the limit of the paralyzing dose with respect to the immunitary response, results, for this reason, in a weak or zero response to the antigen only in the controls: It constitutes therefore a severe criterion to establish the activity of an adjuvant substance. Thirty days later, the mice received, by the same administrative route, a booster containing 0.1 mg of the same antigen.
The antibody level was determined, six days after the booster, by passive hemagglutination using sheep's red blood corpuscles treated with formalin and covered with the antigen studied according to the method described by A. A. HIRATA and M. W. BRANDISS (J. Immunol., 100, 641-648, 1968).
The antibody titer, represented by the maximum serum dilution agglutinating a given amount of sheep corpuscles, reaches a maximum at the 36th day. The results obtained for various products according to the invention are shown in Table I. By way of comparison, the results obtained with MDP are indicated, on the one hand, and for PAP-MDP, on the other hand.

ovalbumin [2] = assay: Adjuvant character in emulsion: serum antibodies specific for ovalbumin; type: in vivo, Hartley guinea pigs; settings: emulsion with 1 mg ovalbumin, intradermal; product 50 μg in FIA; day 21; μg nitrogen precipitatable by antigen per ml serum
Protocol: (§1) The tests were carried out on batches of 6 male Hartley guinea pigs of 350 g. The administration was done by intradermal injection into the plantar pad of each of the rear paws. Ovalbumin (constituting the antigen) in the amount of 1 mg is prepared in 0.1 ml of an emulsion of saline isotonic solution, in an oily phase constituted either by the Freund incomplete adjuvant (FIA) or by the complete adjuvant (FCA) formed by the FIA to which is added 0.1 mg of whole Mycobacterium smegmatis cells. The compound according to the invention was administered in the amount of 0.05 mg added in the emulsion containing the FIA.
Twenty-one days after the injection, the animals were bled. On the collected serum, the content of specific antibodies of the ovalbumin was measured by precipitation of the antibody-antigen complex in the equivalence zone. The amount of protein nitrogen contained in the precipitate was estimated by the Folin method. These values express the amount, in micrograms, of nitrogen precipitatable by the antigen, per milliliter of the serum.

ovalbumin [3] = assay: Adjuvant character in emulsion: delayed hypersensitivity cutaneous test; type: in vivo, Hartley guinea pigs; settings: emulsion with 1 mg ovalbumin, intradermal; product 50 μg in FIA; challenge day 18, read 48 hours later
Protocol: as §1
Eighteen days after this immunization, possible delayed hypersensitivity reactions to the antigen were sought by injecting by the intradermal route 0.01 mg of ovalbumin in the side of the animals, and 48 hours later, the reaction of the point of injection was observed. The diameter in millimeters of the reaction thus-caused was measured.

Klebsiella pneumoniae [4] = assay: Anti-Klebsiella pneumoniae activity in the adult mouse; type: in vivo; settings: for % Protection / Number of mice D + 3 (survivors) / Number of mice D + 5 (survivors) / Number of mice D + 10 (survivors): i.v.
Protocol: An experimental procedure was studied by CHEDID L. et coll. in "Proc. Natl. Acad. Sci. USA," 1977, 74: 2089, which permits the stimulating effect or not to be observed of substances studied with regard to immune defenses according as they protect or not the mice to which they are injected, the mice being inoculated by a dose of Klebsiella pneumoniae which results in the death of almost all of the controls.
(§2) The testing procedure is described in the article CHEDID L. et coll., Proc. Natl. Acad. Sci. USA, 74:2089.
(§3) It was shown that a dose of about 10^4 Klebsiella pneumoniae, injected by the intramuscular route in mice, results in the gradual death of a considerable part, if not all, of the animals in the week following the inoculation. After 8 days, the survival of the animals was definitely achieved.
The survival of groups of inoculated mice under the above conditions and treated by means of the products according to the invention was followed.
For these tests, hybrid mice (C57B1/6×AKR) FI bred at the PASTEUR INSTITUTE, from strains derived from the CNRS breeding station at ORLEANS, were used.
(§4) The infection by Klebsiella pneumoniae, a strain of the capsular 2, biotype d type, was done from a culture of 16 hours in a medium for pneumococci (No. 53515, PASTEUR INSTITUTE).
(§5) Various treatment conditions and tests have been studied. Thus, the treatment was carried out either 24 hours before the test, or 1 hour after the latter. The influence of the infecting dose and the mode of administration has also been studied. In particular, the protective properties of the products have been determined in the case of an injection of Klebsiella pneumoniae by the intravenous route, which corresponds to a severe infection.
(§6) In the majority of cases, the tests have been carried out on mice aged from 5 to 6 weeks. In one part of the tests, on the other hand, mice 7 days old were used, since the immune responses, in very young subjects are substantially different, and, on the whole, much more difficult to stimulate than those that are observed in adult subjects.
(§7) The products are administered in apyrogenic physiological solution in the proportion of 0.2 ml for intravenous administration to adult mice and 0.05 ml for sub-cutaneous injection to mice 7 days old. The controls received the solution alone.
(§8) The percentage protection indicated corresponds to the difference in percentages of survivors of the treated group with respect to the control group.

[5] = system: suprarenalectomized mouse; assay: Toxicity, intravenous injection in the suprarenalectomized mouse; type: in vivo
From the text: The toxicity of the products according to the invention were studied by parenteral administration in mice. It was observed that the toxic doses were of an order of magnitude very much higher than that of the doses at which these products manifest their activity.
In addition, the activity/toxicity ratio is very favorable in the case of the pol-PAP-MDP, as appears when one considers the results of the tests reported below.

[6] = system: Limulus amoebocyte lysate; assay: Limulus test (endotoxic type activity, gel formation)
Protocol: To show the absence of activity of the endotoxic type, products according to the invention were subjected to the Limulus test. For this purpose, 0.1 ml of the Limulus amoebocyte lysate preparation (marketed by the MALLINCKRODT Company, at Saint Louis, U.S.A.) was mixed with an equal volume of the tested product at various concentrations in solution in apyrogenic distilled water. The vessels used were also made apyrogenic by dry heating in the oven, at 180° C., for 2 hours.
After incubating the mixture for 20 minutes at 37° C. in tubes, the formation of gel characteristic of the presence of endotoxin was estimated.
A test is positive when the presence of a firm gel is observed which remains adherent to the bottom of the tube when the latter is inverted (technique described by Elin R. J. and Wolff S. M., J. Infect. Dis., 1973, 126: 349).

Klebsiella pneumoniae [7] = assay: Anti-Klebsiella pneumoniae activity in the 7 day old mouse; type: in vivo; settings: for % Protection / Number of mice D + 3 (survivors) / Number of mice D + 5 (survivors) / Number of mice D + 10 (survivors): 100 μg
From the text: as §2, §3, §4, §5, §6, §7, §8
The results reported in the following table represent the tests carried out in mice aged 7 days.

Listeria monocytogenes = assay: Anti-Listeria monocytogenes activity in the adult mouse; type: in vivo; settings: Listeria i.v. 10^3, treatment D-1, i.v.
Protocol: Under similar conditions to those of the tests of (4), the influence of the administration of the oligomer of p.aminophenyl-glycoside MDP was determined on the mortality of mice in which a dose of Listeria monocytogenes is administered, known for generating typically an infection of cellular type. As previously, the action of the product according to the invention was compared with that of Corynebacterium granulosum of which the anti-infectious properties are well known in this field. It was also determined, still by way of comparison, the action of Mur-NAc-L-Ala-D-isoGln (MDP).
The treatment of the mice and the inoculation were carried out intravenously. The injected products were in solution or suspension in 0.2 ml of apyrogenic physiological solution. The controls only received the solution.
The dose of Listeria administered was, in all the tests, 1.10^3 units.
The test whose results are given below have been carried out varying the doses of the tested products and the interval of time separating the treatment of inoculation of the Listeria monocytogenes (either 1, or 7 days). The number of surviving mice at the fifth and the tenth day following the inoculation was followed, and the percentage protection determined as for the preceding tests.

[8] = adult mouse, infection i.m. 1.5 × 10^4, treatment -24 h, 100 μg
[9] = adult mouse, infection i.m. 1.5 × 10^4, treatment +1 h, 10 μg
[10] = adult mouse, infection i.m. 1.5 × 10^4, treatment +1 h, 100 μg
[11] = adult mouse, infection i.m. 1.5 × 10^4, treatment -24 h, 10 μg
[12] = adult mouse, infection i.v. 1.5 × 10^3, treatment -24 h, 10 μg
[13] = adult mouse, infection i.v. 1.5 × 10^3, treatment -24 h, 100 μg
[14] = adult mouse, infection i.v. 1.5 × 10^5, treatment -24 h, 100 μg
[15] = infection i.v. 2.5 × 10^2, treatment -24 h, s.c.
[16] = infection s.c. 10^3, treatment -24, s.c.

Substance: N^ε.N^ε' 'bis(N-acetyl-muramyl-L-alanyl-D-isoglutamine-L-lysine)-adipimidyl, dichlorohydrate [Adipimidyl-bis-MDP-Lys]
- Antibody titer [1]: 200
- Serum antibodies (ovalbumin [2]): 6000 µg/mL
- Cutaneous test diameter in mm (ovalbumin [3]): 17 mm
- % Protection (Klebsiella pneumoniae [4]; [8]): 44%
- Number of mice D + 3 (survivors) (Klebsiella pneumoniae [4]; [8]): 27
- Number of mice D + 5 (survivors) (Klebsiella pneumoniae [4]; [8]): 23
- Number of mice D + 10 (survivors) (Klebsiella pneumoniae [4]; [8]): 22

Substance: polymer of β-D-p.aminophenyl-glycoside of Mur-NAc-L-Ala-D-isoGln [Pol (PAP-MDP)]
- lethal dose 50 [5]: higher than 100 μg
- times less toxic than endotoxin extracted from E. coli [5]: 5000 times
- times less active than the LPS on Limulus test [6]: 500,000 times
- concentration leading to a positive response (Limulus test) ([6]; 20 minutes at 37° C., firm gel): ~15000 ng/mL
- Antibody titer [1]: 50
- anti-infectious activity with respect to Klebsiella pneumoniae (in words) (Klebsiella pneumoniae [4]; adult mouse, summary of Table 3): anti-infectious
- % Protection (Klebsiella pneumoniae [4]; [9]): 50%
- Number of mice D + 3 (survivors) (Klebsiella pneumoniae [4]; [9]): 16
- Number of mice D + 5 (survivors) (Klebsiella pneumoniae [4]; [9]): 13
- Number of mice D + 10 (survivors) (Klebsiella pneumoniae [4]; [9]): 11
- % Protection (Klebsiella pneumoniae [4]; [10]): 81%
- Number of mice D + 3 (survivors) (Klebsiella pneumoniae [4]; [10]): 16
- Number of mice D + 5 (survivors) (Klebsiella pneumoniae [4]; [10]): 16
- Number of mice D + 10 (survivors) (Klebsiella pneumoniae [4]; [10]): 16
- % Protection (Klebsiella pneumoniae [4]; [11]): 58%
- Number of mice D + 3 (survivors) (Klebsiella pneumoniae [4]; [11]): 24
- Number of mice D + 5 (survivors) (Klebsiella pneumoniae [4]; [11]): 21
- Number of mice D + 10 (survivors) (Klebsiella pneumoniae [4]; [11]): 19
- % Protection (Klebsiella pneumoniae [4]; [8]): 72%
- Number of mice D + 3 (survivors) (Klebsiella pneumoniae [4]; [8]): 24
- Number of mice D + 5 (survivors) (Klebsiella pneumoniae [4]; [8]): 24
- Number of mice D + 10 (survivors) (Klebsiella pneumoniae [4]; [8]): 22
- % Protection (Klebsiella pneumoniae [4]; [12]): 16%
- Number of mice D + 3 (survivors) (Klebsiella pneumoniae [4]; [12]): 22
- Number of mice D + 5 (survivors) (Klebsiella pneumoniae [4]; [12]): 17
- Number of mice D + 10 (survivors) (Klebsiella pneumoniae [4]; [12]): 9
- % Protection (Klebsiella pneumoniae [4]; [13]): 75%
- Number of mice D + 3 (survivors) (Klebsiella pneumoniae [4]; [13]): 15
- Number of mice D + 5 (survivors) (Klebsiella pneumoniae [4]; [13]): 14
- Number of mice D + 10 (survivors) (Klebsiella pneumoniae [4]; [13]): 14
- % Protection (Klebsiella pneumoniae [4]; [14]): 12%
- Number of mice D + 3 (survivors) (Klebsiella pneumoniae [4]; [14]): 12
- Number of mice D + 5 (survivors) (Klebsiella pneumoniae [4]; [14]): 4
- Number of mice D + 10 (survivors) (Klebsiella pneumoniae [4]; [14]): 3
- active dose (anti-infectious activity) (Klebsiella pneumoniae [4]; as stated in the Limulus discussion): 10 μg per mouse
- % Protection (Klebsiella pneumoniae [7]; [15]): 41%
- Number of mice D + 3 (survivors) (Klebsiella pneumoniae [7]; [15]): 14
- Number of mice D + 5 (survivors) (Klebsiella pneumoniae [7]; [15]): 10
- Number of mice D + 10 (survivors) (Klebsiella pneumoniae [7]; [15]): 9
- % Protection (Klebsiella pneumoniae [7]; [16]): 34%
- Number of mice D + 3 (survivors) (Klebsiella pneumoniae [7]; [16]): 22
- Number of mice D + 5 (survivors) (Klebsiella pneumoniae [7]; [16]): 19
- Number of mice D + 10 (survivors) (Klebsiella pneumoniae [7]; [16]): 19
- anti-infectious activity with respect to Klebsiella pneumoniae (in words) (Klebsiella pneumoniae [7]; summary of Table 4): notable anti-infectious activity
- % Protection (Listeria monocytogenes; 10 μg): 29%
- Number of mice D + 5 (survivors) (Listeria monocytogenes; 10 μg): 10
- Number of mice D + 10 (survivors) (Listeria monocytogenes; 10 μg): 6
- % Protection (Listeria monocytogenes; 100 μg): 71%
- Number of mice D + 5 (survivors) (Listeria monocytogenes; 100 μg): 23
- Number of mice D + 10 (survivors) (Listeria monocytogenes; 100 μg): 19
